# According to US20060025390A1, “Treatment of hormone allergy and related symptoms and disorders” (priority 2004, published 2006):
# B1: myelin basic protein (protein, UniProt P02686 1-304, looked up)
# Myelin basic protein: MGNHAGKRELNAEKASTNSETNRGESEKKRNLGELSRTTSEDNEVFGEADANQNNGTSSQDTAVTDSKRTADPKNAWQDAHPADPGSRPHLIRLFSRDAPGREDNTFKDRPSESDELQTIQEDSAATSESLDVMASQKRPSQRHGSKYLATASTMDHARHGFLPRHRDTGILDSIGRFFGGDRGAPKRGSGKDSHHPARTAHYGSLPQKSHGRTQDENPVVHFFKNIVTPRTPPPSQGKGRGLSLSRFSWGAEGQRPGFGYGGRASDYKSAHKGFKGVDAQGTLSKIFKLGGRDSRSGSPMARR
# Legend:
# [1] = system: serum IgG anti-estrogen antibodies; experiment: ELISA binding of IgG estrogen antibodies to different hormones in solid phase; set-up: species or system human; settings: for IgG binding (optical density): hormone in solid phase, 405 nm; for IgG % reaction: relative to estrogen = 100; for IgG anti-estrogen binding: relative to estrogen, over three sera
# Description: (§1) The ELISA inhibition method was used to determine specificity and cross-reactivity between different hormones and to ensure the degree of human IgG, IgM and IgE estrogen or progesterone binding to estrogen or progesterone in solid phase. […] 100 μl of sera from three different patients with high IgG, IgM or IgE antibodies against 17-α-hydroxyprogesterone was added to all wells. After shaking and incubation for 1 hr at room temperature, addition of enzyme labeled anti-human IgG, IgM or IgE, repeat of incubation, washing, and addition of substrate, color development was measured at 405 nm. Results were calculated as percentage of anti-17-α-hydroxyprogesterone binding to 17-α-hydroxyprogesterone and other hormones. Also, anti-estrogen binding to estrogen and other hormones in solid phase by progesterone in liquid phase was performed and calculated in a similar manner.
# (§2) Human sera containing 17-α-hydroxyprogesterone IgG-, IgM- and IgE-binding antibodies were reacted against progesterone, estrogen, hydrocortisone and cholesterol. In comparison to 100% binding of anti-17-α-hydroxyprogesterone-binding to 17-α-hydroxyprogesterone, the IgG anti-17-α-hydroxyprogesterone-binding to progesterone, estrogen, hydrocortisone and cholesterol was 69-77%, 25-30%, 39-53%, and less than 10% respectively (Table 4). The % binding of serum IgM and IgE anti-17-α-hydroxyprogesterone to 17-1-hydroxyprogesterone, progesterone, estrogen, hydrocortisone and cholesterol was similar to the binding of IgG. This binding of anti-17-α-hydroxyprogesterone to progesterone was the highest, followed by hydrocortisone, then estrogen, to almost no binding with cholesterol. Similar to this, human sera with IgG, IgM and IgE binding antibodies against estrogen were reacted with progesterone, 17-α-hydroxyprogesterone, hydrocortisone and cholesterol, in the presence of estrogen.
# [2] = system: serum IgE anti-17-α-hydroxyprogesterone antibodies; experiment: ELISA binding of IgE 17-α-hydroxyprogesterone antibodies to different hormones in solid phase; set-up: species or system human; settings: for IgE binding (optical density): hormone in solid phase, 405 nm; for IgE % reaction: relative to 17-α-hydroxyprogesterone = 100
# Description: as §1, §2
# [3] = system: serum IgM anti-estrogen antibodies; experiment: ELISA binding of IgM estrogen antibodies to different hormones in solid phase; set-up: species or system human; settings: for IgM binding (optical density): hormone in solid phase, 405 nm; for IgM % reaction: relative to estrogen = 100; for IgM anti-estrogen binding: relative to estrogen, over three sera
# Description: as §1, §2
# [4] = system: serum IgG anti-17-α-hydroxyprogesterone antibodies; experiment: ELISA binding of IgG 17-α-hydroxyprogesterone antibodies to different hormones in solid phase; set-up: species or system human; settings: for IgG anti-17-α-hydroxyprogesterone binding: in comparison to 100% binding to 17-α-hydroxyprogesterone, over three sera; for IgG binding (optical density): hormone in solid phase, 405 nm; for IgG % reaction: relative to 17-α-hydroxyprogesterone = 100
# Description: as §1, §2
# [5] = system: serum IgE anti-estrogen antibodies; experiment: ELISA binding of IgE estrogen antibodies to different hormones in solid phase; set-up: species or system human; settings: for IgE binding (optical density): hormone in solid phase, 405 nm; for IgE % reaction: relative to estrogen = 100; for IgE anti-estrogen binding: relative to estrogen, over three sera
# Description: as §1, §2
# [6] = system: serum IgM anti-17-α-hydroxyprogesterone antibodies; experiment: ELISA binding of IgM 17-α-hydroxyprogesterone antibodies to different hormones in solid phase; set-up: species or system human; settings: for IgM binding (optical density): hormone in solid phase, 405 nm; for IgM % reaction: relative to 17-α-hydroxyprogesterone = 100
# Description: as §1, §2
# [7] = system: serum IgG anti-estrogen antibodies; experiment: Competition ELISA: absorption of serum IgG anti-estrogen with specific and non-specific antigens; type: binding, human; settings: for inhibition of anti-estrogen binding to estrogen (IgG): antigen in liquid phase, over the three sera; for IgG level after absorption: absorption with 250 μg/mL, optical density 405 nm
# Description: (§3) For this, microtiter plates were coated with hormones and blocked by the addition of 2% BSA in PBST. 100 μl of serum diluent buffer was added to all wells. […] After 60 minutes incubation 100 μl serum anti-estrogen or anti-progesterone was added to all wells. […] Results were calculated as percentage of inhibition in antigen-antibody reaction.
# (§4) To examine whether antibodies to estrogen or progesterone are specific or cross-reactive, we performed competition ELISA by adding specific and non-specific antigens in liquid phase and examined prevention of serum antibody binding to the antigen in solid phase. […] For IgE anti-estrogen, this inhibition by estrogen-BSA was between 54-62%, and with progesterone-BSA, from 37-43%. […] This cross-reaction between estrogen and progesterone antibodies may be due to structural similarities between these two hormones.
# [8] = system: serum IgE anti-estrogen antibodies; experiment: Competition ELISA: absorption of serum IgE anti-estrogen with specific and non-specific antigens; type: binding, human; settings: for inhibition of IgE anti-estrogen binding: antigen in liquid phase, over the three sera; for IgE level after absorption: absorption with 250 μg/mL, optical density 405 nm
# Description: as §3, §4
# [9] = serum sample 1, before absorption 1.83
# [10] = serum sample 2, before absorption 1.25
# [11] = serum sample 3, before absorption 0.76
# [12] = serum sample 1, before absorption 2.15
# [13] = serum sample 2, before absorption 1.66
# [14] = serum sample 3, before absorption 1.34
Molecule,IgG binding (optical density) ([1]; sample 1),IgG binding (optical density) ([1]; sample 2),IgG binding (optical density) ([1]; sample 3),IgE binding (optical density) ([2]; sample 1),IgE binding (optical density) ([2]; sample 2),IgE % reaction ([2]; sample 2),IgE binding (optical density) ([2]; sample 3),IgM binding (optical density) ([3]; sample 1),IgM binding (optical density) ([3]; sample 2),IgM % reaction ([3]; sample 2),IgM binding (optical density) ([3]; sample 3),IgM % reaction ([3]; sample 3),IgG anti-17-α-hydroxyprogesterone binding [4],IgG binding (optical density) ([4]; sample 1),IgG % reaction ([4]; sample 1),IgG binding (optical density) ([4]; sample 2),IgG binding (optical density) ([4]; sample 3),IgE binding (optical density) ([5]; sample 1),IgE binding (optical density) ([5]; sample 2),IgE % reaction ([5]; sample 2),other results
"CC(=O)[C@@]1(O)CC[C@H]2[C@@H]3CCC4=CC(=O)CC[C@]4(C)[C@H]3CC[C@@]21C [HP, 17-α-hydroxy-progesterone]",0.42,0.75,0.52,1.45,2.4,−100%,1.1,0.34,0.88,−42%,0.59,−45%,100%,1.6,−100%,0.95,0.68,0.22,0.65,−43%,IgG % reaction ([1]; sample 1): −35%; IgG % reaction ([1]; sample 2): −42%; IgG % reaction ([1]; sample 3): −57%; IgE % reaction ([2]; sample 1): −100%; IgE % reaction ([2]; sample 3): −100%; IgM % reaction ([3]; sample 1): −38%; IgG % reaction ([4]; sample 2): −100%; IgG % reaction ([4]; sample 3): −100%; IgE % reaction ([5]; sample 1): −28%; IgE binding (optical density) ([5]; sample 3): 0.73; IgE % reaction ([5]; sample 3): −46%; IgM binding (optical density) ([6]; sample 1): 1.3; IgM % reaction ([6]; sample 1): −100%; IgM binding (optical density) ([6]; sample 2): 1.2; IgM % reaction ([6]; sample 2): −100%; IgM binding (optical density) ([6]; sample 3): 0.92; IgM % reaction ([6]; sample 3): −100%
bovine serum albumin [BSA],–,–,–,–,–,–,–,–,–,–,–,–,–,–,–,–,–,–,–,–,"inhibition of anti-estrogen binding to estrogen (IgG) [7]: did not significantly absorb; IgG level after absorption [7, 9]: 1.79; IgG level after absorption [7, 10]: 1.13; IgG level after absorption [7, 11]: 0.81; inhibition of IgE anti-estrogen binding [8]: did not significantly absorb; IgE level after absorption [8, 12]: 2.24; IgE level after absorption [8, 13]: 1.53; IgE level after absorption [8, 14]: 1.26"
"CC(C)CCC[C@@H](C)[C@H]1CC[C@H]2[C@@H]3CC=C4C[C@@H](O)CC[C@]4(C)[C@H]3CC[C@]12C [C, Cholesterol]",0.12,0.19,0.15,0.2,0.23,−10%,0.18,0.13,0.25,−12%,0.24,−18%,less than 10%,0.21,−13%,0.12,0.17,0.15,0.21,−14%,IgG anti-estrogen binding [1]: not significant; IgM anti-estrogen binding [3]: not significant; IgE anti-estrogen binding [5]: not significant; IgE binding (optical density) ([5]; sample 3): 0.28; IgE % reaction ([5]; sample 3): −17%; IgM binding (optical density) ([6]; sample 1): 0.18; IgM binding (optical density) ([6]; sample 2): 0.19; IgM binding (optical density) ([6]; sample 3): 0.15
"C[C@]12CCC(=O)C=C1CC[C@@H]1[C@@H]2[C@@H](O)C[C@@]2(C)[C@H]1CC[C@]2(O)C(=O)CO [HC, Hydrocortisone]",0.15,0.31,0.18,0.58,1.2,−50%,0.68,0.16,0.44,−21%,0.23,−18%,39-53%,0.69,−43%,0.37,0.36,0.17,0.29,−19%,IgG anti-estrogen binding [1]: not significant; IgG % reaction ([1]; sample 2): −17%; IgE % reaction ([2]; sample 1): −40%; IgE % reaction ([2]; sample 3): −39%; IgM anti-estrogen binding [3]: not significant; IgG % reaction ([4]; sample 2): −39%; IgG % reaction ([4]; sample 3): −53%; IgE anti-estrogen binding [5]: not significant; IgE binding (optical density) ([5]; sample 3): 0.25; IgE % reaction ([5]; sample 3): −16%; IgM binding (optical density) ([6]; sample 1): 0.47; IgM % reaction ([6]; sample 1): −36%; IgM binding (optical density) ([6]; sample 2): 0.5; IgM % reaction ([6]; sample 2): −39%; IgM binding (optical density) ([6]; sample 3): 0.51; IgM % reaction ([6]; sample 3): −55%
B1,–,–,–,–,–,–,–,–,–,–,–,–,–,–,–,–,–,–,–,–,"inhibition of anti-estrogen binding to estrogen (IgG) [7]: did not significantly absorb; IgG level after absorption [7, 9]: 1.67; IgG level after absorption [7, 10]: 1.13; IgG level after absorption [7, 11]: 0.68; inhibition of IgE anti-estrogen binding [8]: did not significantly absorb; IgE level after absorption [8, 12]: 2.05; IgE level after absorption [8, 13]: 1.73; IgE level after absorption [8, 14]: 1.11"
